pIC50: −log10 of the molar value.

For orientation: pIC50 means −log10 of the IC50, conventionally taken in molar units.

Assay [1] deals with T1, PDE4B2 (Homo sapiens, UniProt Q07343).
T1 construct: expressed in transfected cells; host or cells: Flp-In-293 (Flpin-293-PDE4B2 [sic])
Kind of assay: PDE4B2 enzyme experiment (AMP-glo, cAMP substrate). In kind it is biochemical.
Method: All compounds were dissolved in DMSO into 10 mM or 20 mM stock solutions. The compound to be tested was diluted with DMSO in a 3-fold gradient. 20 nL/well of the compound or a DMSO control was transferred to a 384-well plate by using Echo 550 instrument. The plate was sealed with a membrane and centrifuged for 1 minute. A 2x enzyme solution was prepared with an assay buffer, and 2 uL/well of the 2x enzyme solution was added, followed by equilibration at room temperature for 10 minutes. A 2x Cyclic-3',5'-AMP substrate solution was prepared with an assay buffer, and 2 uL/well of the 2x substrate solution was added, followed by incubation at room temperature for 60 minutes. 4 uL of AMP-glo reagent was added, followed by incubation at room temperature for 60 minutes. 8 ul of an AMP detection solution was added, followed by incubation at room temperature for 60 minutes. An RLU value was read on Envision 2105 plate reader. The RLU value represents the concentration of the product AMP. Inhibition rate % ^= (1 - (RLUpositive control - RLUcompound)/(RLUpositive control - RLUnegative control)) * 100. The IC50 value was then caulculated by Graphpad 8.0 software using Y = Bottom + (Top - Bottom)/(1 + 10^((LogIC50 - X) * HillSlope)).

In another assay the target is PDE4D2 (Homo sapiens, UniProt Q08499). Kind of assay: PDE4D2 enzyme experiment (AMP-glo, cAMP substrate). In kind it is biochemical. As to conditions: read-out: PDE4D2 IC50 Binding. The source says:
Inhibition rate % ^= (1 - (RLUpositive control - RLUcompound)/(RLUpositive control - RLUnegative control)) * 100.

In assay [2] the target is T1, PDE4B2. Kind of assay: PDE4B2 cell experiment (cAMP, Eu-cAMP tracer / Ulight-anti-cAMP). In kind it is cell-based. As to conditions: Flpin-293-PDE4B2 cells.
Method: All compounds were dissolved in DMSO into 10 mM or 20 mM stock solutions. The compound to be tested was diluted with DMSO with a 3-fold gradient. […] 40 nL/well of the compound or a DMSO control was transferred to a 384-well plate by using Echo 550 instrument. […] The plate was incubated at 37°C for 30 minutes. Eu-cAMP tracer and Ulight-anti-cAMP were frozen and thawed and diluted in a lysis buffer. 10 of µl Eu-cAMP tracer was added to an experimental well, and 10 µl of Ulight-anti-cAMP was added to the experimental well. The reaction plate was centrifuged at 200 g at room temperature for 30 s and then left to stand at 25°C for 1 h, and data was then collected by Envision. Inhibition % = 100 - (Signal compound - SignalAve positive control)/(SignalAve negative control - SignalAve positive control) × 100. Graphpad 8.0 software was then used to obtain an IC50 value by calculation using Y = Bottom + (Top - Bottom)/(1 + 10^((LogIC50 - X) * HillSlope)).

T1 sequence (Q07343 1-564 isoform Q07343-2): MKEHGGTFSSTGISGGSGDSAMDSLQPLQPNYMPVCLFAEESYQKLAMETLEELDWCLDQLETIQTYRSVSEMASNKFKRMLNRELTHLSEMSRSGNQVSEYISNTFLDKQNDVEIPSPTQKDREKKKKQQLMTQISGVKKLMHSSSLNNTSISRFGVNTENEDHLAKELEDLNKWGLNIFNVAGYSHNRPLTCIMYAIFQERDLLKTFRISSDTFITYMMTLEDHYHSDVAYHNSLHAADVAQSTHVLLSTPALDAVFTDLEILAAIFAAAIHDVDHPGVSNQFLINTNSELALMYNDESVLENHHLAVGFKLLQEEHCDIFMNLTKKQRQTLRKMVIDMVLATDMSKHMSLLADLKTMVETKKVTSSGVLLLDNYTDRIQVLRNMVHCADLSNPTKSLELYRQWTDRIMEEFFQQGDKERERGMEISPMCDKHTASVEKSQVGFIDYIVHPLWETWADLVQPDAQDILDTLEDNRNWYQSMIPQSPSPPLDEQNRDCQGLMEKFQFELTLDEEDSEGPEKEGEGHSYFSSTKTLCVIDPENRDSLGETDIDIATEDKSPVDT
PDE4D2, sequence (Q08499 303-809 limits assumed): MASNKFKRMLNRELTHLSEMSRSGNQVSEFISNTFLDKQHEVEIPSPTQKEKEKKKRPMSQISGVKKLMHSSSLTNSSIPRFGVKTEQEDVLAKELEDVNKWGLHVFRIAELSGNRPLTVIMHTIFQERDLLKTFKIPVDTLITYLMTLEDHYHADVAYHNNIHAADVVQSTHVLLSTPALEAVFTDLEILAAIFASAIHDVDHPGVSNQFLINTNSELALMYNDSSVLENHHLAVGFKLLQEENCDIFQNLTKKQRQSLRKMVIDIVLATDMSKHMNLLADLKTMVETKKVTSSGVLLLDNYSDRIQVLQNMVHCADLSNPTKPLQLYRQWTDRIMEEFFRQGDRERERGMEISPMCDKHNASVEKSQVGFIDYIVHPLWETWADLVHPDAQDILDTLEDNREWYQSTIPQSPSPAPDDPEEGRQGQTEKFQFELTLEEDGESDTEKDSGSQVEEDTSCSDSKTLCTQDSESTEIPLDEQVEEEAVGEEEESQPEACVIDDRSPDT

Consider `[O-][S+]1CCc2nc(N3CCc4c(c(NCCO)nc5cc(Cl)ccc45)C3)nc(NC3(CO)CCC3)c21` (stereo not drawn) [Compound 103], for which the pIC50 on PDE4B2 [1] was 9.47. Besides, the pIC50 at PDE4D2 was 9.06. On PDE4B2 [2], the “Cell Inhibition% @1 nM” value was 2.83%, the “Cell Inhibition% @10 nM” value came to 38.89% and the “Cell Inhibition% @100 nM” value was found to be 95.41%.
The matching figures for `[O-][S+]1CCc2nc(N3CC[C@@H]4c5cccc(Cl)c5OC[C@H]4C3)nc(NC3(CO)CCC3)c21` (stereo partly drawn) [Compound 107]: 8.94, 8.53, 2.82%, 52.48% and 98.12%.
For `[O-][S+]1CCc2nc(N3CC[C@@H]4c5cc(Cl)ccc5OC[C@H]4C3)nc(NC3(CO)CCC3)c21` (stereo partly drawn) [Compound 108] the same measures were 8.85, 8.38, -0.82%, 37.35% and 95.13%.
For `[O-][S+]1CCc2nc(N3CC[C@H]4c5ccc(Cl)cc5OC[C@H]4C3)nc(NC3(CO)CCC3)c21` (stereo partly drawn) [Compound 116] the same measures were 8.52, 7.91, 2.17%, 16.91% and 73.36%.
`O=C(O)Cc1ccc(Nc2nc(N3CCc4cc(Cl)ccc4C3)nc3c2[S@@+]([O-])CC3)cc1` [Compound 128] had a negative-log IC50 (pIC50) on PDE4B2 [1] of 8.26. Also, the pIC50 on PDE4D2 was 7.74. Further, on PDE4B2 [2], the “Cell Inhibition% @1 nM” value was -0.97%, the “Cell Inhibition% @10 nM” value stood at 6.68% and the “Cell Inhibition% @100 nM” value was determined as 25.39%.
For `O=C(O)Cc1ccc(Nc2nc(N3CCc4cc(Cl)ccc4C3)nc3c2[S@+]([O-])CC3)cc1` [Compound 129] the same measures were 9.69, 9.15, 6.93%, 39.59% and 72.19%.

Values taken from patent EP4678644A1, “SUBSTITUTED DIHYDROTHIENOPYRIMIDINE COMPOUND, PREPARATION METHOD THEREFOR, AND USE THEREOF” (Shanghai Yidi Biotechnology Co., Ltd., priority 2023, dated 2024).
